Common to all, as to assay: KINOMEscan kinase binding assay (Eurofins/DiscoveRx), % Ctrl
Conditions in all cases: 1 μM

The target in assay [1] is T1, kinases (Homo sapiens, UniProt P35916).
T1 construct: purchased Eurofins/DiscoveRx; host or cells: E. coli BL21-derived host (T7 phage display) for most kinases; HEK-293 for the rest
On the procedure: (§1) Kinase binding assays were performed at Eurofins/DiscoveRx using the general KINOMEscan Protocol (Fabian, M. A. et al., “A small molecule-kinase interaction map for clinical kinase inhibitors,” Nat. Biotechnol. 2005, 23(3):329-36). For most assays, kinase-tagged T7 phage strains were prepared in an E. coli host derived from the BL21 strain. E. coli were grown to log-phase and infected with T7 phage and incubated with shaking at 32° C. until lysis. The lysates were centrifuged and filtered to remove cell debris. The remaining kinases were produced in HEK-293 cells and subsequently tagged with DNA for qPCR detection. Streptavidin-coated magnetic beads were treated with biotinylated small molecule ligands for 30 minutes at room temperature to generate affinity resins for kinase assays. The liganded beads were blocked with excess biotin and washed with blocking buffer (SeaBlock (Pierce), 1% BSA, 0.05% Tween 20, 1 mM DTT) to remove unbound ligand and to reduce nonspecific binding. Binding reactions were assembled by combining kinases, liganded affinity beads, and test compounds in 1×binding buffer (20% SeaBlock, 0.17×PBS, 0.05% Tween 20, 6 mM DTT). All reactions were performed in polystyrene 96-well plates in a final volume of 0.135 mL. The assay plates were incubated at room temperature with shaking for 1 hour and the affinity beads were washed with washbuffer (1×PBS, 0.05% Tween 20). The beads were then re-suspended in elution buffer (1× PBS, 0.05% Tween 20, 0.5 μM non-biotinylated affinity ligand) and incubated at room temperature with shaking for 30 minutes. The kinase concentration in the eluates was measured by qPCR. Results for compounds tested in this assay at a given concentration are reported as “% Ctrl”, where lower numbers indicate stronger binding in the matrix.
(§2) (test compound signal-positive control signal)/(negative control signal-positive control signal) X100

Assay [2] deals with T2, kinases (Homo sapiens, UniProt P00519, M351T).
T2 construct: purchased Eurofins/DiscoveRx; host or cells: E. coli BL21-derived host (T7 phage display) for most kinases; HEK-293 for the rest
How it is done:
as §1, §2

Assay [3] has as its target T3, kinases (Homo sapiens, UniProt P10721, L576P).
T3 construct: purchased Eurofins/DiscoveRx; host or cells: E. coli BL21-derived host (T7 phage display) for most kinases; HEK-293 for the rest
How it is done:
as §1, §2

Assay [4] concerns the target T4, kinases (Homo sapiens, UniProt P00533, L858R/T790M).
T4 construct: purchased Eurofins/DiscoveRx; host or cells: E. coli BL21-derived host (T7 phage display) for most kinases; HEK-293 for the rest
How it is done: as §1, §2

The target of assay [5] is T5, kinases (Homo sapiens, UniProt P17948).
T5 construct: purchased Eurofins/DiscoveRx; host or cells: E. coli BL21-derived host (T7 phage display) for most kinases; HEK-293 for the rest
T5 sequence (P17948 27-1338): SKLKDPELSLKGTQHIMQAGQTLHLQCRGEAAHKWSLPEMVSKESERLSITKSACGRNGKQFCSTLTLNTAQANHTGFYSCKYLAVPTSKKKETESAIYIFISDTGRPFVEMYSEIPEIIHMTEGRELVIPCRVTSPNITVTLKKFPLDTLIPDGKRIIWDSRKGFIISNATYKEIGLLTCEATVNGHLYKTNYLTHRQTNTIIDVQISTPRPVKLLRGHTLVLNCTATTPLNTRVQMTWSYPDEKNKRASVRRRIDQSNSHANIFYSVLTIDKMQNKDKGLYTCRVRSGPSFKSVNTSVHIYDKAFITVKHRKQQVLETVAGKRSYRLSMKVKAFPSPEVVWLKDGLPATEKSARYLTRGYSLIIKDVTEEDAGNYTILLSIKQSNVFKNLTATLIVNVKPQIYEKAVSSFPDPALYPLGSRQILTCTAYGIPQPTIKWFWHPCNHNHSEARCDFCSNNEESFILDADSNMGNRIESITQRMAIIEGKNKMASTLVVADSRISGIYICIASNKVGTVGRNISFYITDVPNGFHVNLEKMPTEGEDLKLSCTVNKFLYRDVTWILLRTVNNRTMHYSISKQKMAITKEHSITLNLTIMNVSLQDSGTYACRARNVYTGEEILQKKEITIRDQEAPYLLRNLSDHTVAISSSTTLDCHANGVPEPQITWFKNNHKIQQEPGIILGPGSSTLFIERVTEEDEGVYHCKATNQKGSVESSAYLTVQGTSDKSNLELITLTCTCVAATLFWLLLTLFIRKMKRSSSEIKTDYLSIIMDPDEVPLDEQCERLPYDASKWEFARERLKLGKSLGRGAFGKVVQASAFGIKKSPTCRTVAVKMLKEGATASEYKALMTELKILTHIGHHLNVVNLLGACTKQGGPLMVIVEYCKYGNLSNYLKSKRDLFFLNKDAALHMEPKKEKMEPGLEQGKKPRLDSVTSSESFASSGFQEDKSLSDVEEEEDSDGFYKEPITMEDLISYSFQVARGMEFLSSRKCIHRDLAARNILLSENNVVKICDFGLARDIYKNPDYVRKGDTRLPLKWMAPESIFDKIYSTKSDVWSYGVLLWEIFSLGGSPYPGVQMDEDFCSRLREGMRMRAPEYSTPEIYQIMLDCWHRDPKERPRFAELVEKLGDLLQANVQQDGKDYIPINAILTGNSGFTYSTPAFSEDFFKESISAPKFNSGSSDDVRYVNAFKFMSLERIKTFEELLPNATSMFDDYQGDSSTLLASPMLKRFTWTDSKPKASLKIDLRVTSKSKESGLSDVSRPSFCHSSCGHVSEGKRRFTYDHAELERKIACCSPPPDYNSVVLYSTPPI
On the procedure: as §1, §2

Assay [6] concerns the target T6, kinases (Homo sapiens, UniProt P36888, D835Y).
T6 construct: purchased Eurofins/DiscoveRx; host or cells: E. coli BL21-derived host (T7 phage display) for most kinases; HEK-293 for the rest
T6 sequence (P36888 27-993 D835Y): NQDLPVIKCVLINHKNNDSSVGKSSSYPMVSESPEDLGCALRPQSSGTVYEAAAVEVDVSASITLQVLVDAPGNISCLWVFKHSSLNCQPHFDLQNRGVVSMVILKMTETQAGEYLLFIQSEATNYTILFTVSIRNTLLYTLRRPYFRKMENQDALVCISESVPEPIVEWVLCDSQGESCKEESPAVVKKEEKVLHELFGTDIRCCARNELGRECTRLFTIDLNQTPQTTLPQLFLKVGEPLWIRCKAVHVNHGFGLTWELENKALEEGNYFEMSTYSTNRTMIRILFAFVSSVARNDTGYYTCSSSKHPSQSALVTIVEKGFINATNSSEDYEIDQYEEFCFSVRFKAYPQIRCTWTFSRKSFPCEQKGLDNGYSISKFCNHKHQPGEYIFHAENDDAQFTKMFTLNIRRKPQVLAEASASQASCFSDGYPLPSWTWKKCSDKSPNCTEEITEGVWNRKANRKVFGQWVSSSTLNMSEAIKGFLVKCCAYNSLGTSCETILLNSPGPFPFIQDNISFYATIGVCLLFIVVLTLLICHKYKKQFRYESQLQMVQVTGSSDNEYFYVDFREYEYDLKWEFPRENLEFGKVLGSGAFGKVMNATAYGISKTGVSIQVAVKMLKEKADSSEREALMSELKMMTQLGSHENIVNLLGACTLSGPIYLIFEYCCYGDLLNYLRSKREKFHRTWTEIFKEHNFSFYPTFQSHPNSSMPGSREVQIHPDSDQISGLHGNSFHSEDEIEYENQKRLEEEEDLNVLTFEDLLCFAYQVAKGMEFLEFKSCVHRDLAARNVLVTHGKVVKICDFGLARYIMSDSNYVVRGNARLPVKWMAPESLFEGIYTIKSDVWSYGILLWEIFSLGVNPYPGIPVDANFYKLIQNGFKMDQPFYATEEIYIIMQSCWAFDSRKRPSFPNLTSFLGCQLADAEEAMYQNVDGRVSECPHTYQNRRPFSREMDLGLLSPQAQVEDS
How it is done:
as §1, §2

Assay [7] has as its target T7, kinases (Homo sapiens, UniProt P07949, V804M).
T7 construct: purchased Eurofins/DiscoveRx; host or cells: E. coli BL21-derived host (T7 phage display) for most kinases; HEK-293 for the rest
How it is done:
as §1, §2

In assay [8] the target is T8, kinases (Homo sapiens, UniProt P10721, T670I/V559D).
T8 construct: purchased Eurofins/DiscoveRx; host or cells: E. coli BL21-derived host (T7 phage display) for most kinases; HEK-293 for the rest
T8 sequence (P10721 26-976 V559D/T670I): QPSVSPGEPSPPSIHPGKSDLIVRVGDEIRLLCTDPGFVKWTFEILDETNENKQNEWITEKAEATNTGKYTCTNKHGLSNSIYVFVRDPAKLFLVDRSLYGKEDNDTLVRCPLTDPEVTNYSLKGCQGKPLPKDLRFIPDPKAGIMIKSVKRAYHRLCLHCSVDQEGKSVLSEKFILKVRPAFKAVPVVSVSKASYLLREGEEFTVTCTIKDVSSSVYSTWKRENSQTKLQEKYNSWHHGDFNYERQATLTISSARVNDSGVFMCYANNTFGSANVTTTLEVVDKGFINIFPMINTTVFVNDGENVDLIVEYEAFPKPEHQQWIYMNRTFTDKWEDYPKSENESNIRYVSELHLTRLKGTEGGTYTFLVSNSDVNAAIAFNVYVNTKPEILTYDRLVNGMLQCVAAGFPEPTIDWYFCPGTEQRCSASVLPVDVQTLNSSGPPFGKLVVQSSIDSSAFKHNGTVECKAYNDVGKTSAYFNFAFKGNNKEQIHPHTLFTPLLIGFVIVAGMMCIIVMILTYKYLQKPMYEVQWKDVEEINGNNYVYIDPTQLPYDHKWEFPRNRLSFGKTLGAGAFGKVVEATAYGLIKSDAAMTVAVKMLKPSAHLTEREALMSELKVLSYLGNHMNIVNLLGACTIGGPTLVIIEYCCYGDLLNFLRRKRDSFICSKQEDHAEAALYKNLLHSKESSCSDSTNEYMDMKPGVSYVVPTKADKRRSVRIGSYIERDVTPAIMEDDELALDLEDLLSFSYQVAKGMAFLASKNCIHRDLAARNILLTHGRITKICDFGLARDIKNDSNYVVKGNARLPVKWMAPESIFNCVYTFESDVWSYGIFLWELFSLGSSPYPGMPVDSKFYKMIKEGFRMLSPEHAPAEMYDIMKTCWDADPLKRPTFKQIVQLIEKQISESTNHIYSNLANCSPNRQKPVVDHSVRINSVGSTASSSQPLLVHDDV
How it is done:
as §1, §2

Where [9] appears, read: target ABL1(M351T)-phosphorylated.

T7 sequence (P07949 29-1114 V804M): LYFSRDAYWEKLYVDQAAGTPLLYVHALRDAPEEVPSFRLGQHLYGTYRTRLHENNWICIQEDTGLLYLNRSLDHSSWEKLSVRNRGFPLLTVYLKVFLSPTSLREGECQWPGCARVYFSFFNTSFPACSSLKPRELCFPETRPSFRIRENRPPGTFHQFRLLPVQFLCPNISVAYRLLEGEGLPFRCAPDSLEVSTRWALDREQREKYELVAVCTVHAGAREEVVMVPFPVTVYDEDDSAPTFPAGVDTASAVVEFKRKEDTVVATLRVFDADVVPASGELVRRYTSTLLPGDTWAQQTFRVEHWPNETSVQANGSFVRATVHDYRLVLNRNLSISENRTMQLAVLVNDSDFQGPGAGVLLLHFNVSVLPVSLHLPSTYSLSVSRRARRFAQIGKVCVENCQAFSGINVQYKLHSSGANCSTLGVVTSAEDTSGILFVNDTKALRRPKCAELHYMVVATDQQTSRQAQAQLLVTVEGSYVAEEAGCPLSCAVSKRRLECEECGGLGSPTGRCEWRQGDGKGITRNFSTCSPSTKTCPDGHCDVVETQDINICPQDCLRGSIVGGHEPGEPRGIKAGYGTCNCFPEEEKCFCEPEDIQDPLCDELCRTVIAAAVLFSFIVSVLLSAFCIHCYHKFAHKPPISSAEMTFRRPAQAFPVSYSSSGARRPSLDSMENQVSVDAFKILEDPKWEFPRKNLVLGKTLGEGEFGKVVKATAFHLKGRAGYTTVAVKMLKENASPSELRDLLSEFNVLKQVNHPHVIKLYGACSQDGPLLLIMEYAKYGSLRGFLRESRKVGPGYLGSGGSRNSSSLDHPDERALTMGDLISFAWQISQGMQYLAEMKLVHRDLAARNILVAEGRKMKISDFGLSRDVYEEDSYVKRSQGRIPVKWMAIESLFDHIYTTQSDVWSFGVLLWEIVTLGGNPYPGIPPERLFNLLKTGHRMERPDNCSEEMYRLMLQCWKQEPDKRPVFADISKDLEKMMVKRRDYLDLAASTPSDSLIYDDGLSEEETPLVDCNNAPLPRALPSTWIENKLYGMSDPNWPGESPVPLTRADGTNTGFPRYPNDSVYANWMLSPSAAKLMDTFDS
T3 sequence (P10721 26-976 L576P): as the sequence (P10721 26-976 V559D/T670I) above, with D534V, L551P, I645T counted along it
T1 sequence (P35916 25-1363): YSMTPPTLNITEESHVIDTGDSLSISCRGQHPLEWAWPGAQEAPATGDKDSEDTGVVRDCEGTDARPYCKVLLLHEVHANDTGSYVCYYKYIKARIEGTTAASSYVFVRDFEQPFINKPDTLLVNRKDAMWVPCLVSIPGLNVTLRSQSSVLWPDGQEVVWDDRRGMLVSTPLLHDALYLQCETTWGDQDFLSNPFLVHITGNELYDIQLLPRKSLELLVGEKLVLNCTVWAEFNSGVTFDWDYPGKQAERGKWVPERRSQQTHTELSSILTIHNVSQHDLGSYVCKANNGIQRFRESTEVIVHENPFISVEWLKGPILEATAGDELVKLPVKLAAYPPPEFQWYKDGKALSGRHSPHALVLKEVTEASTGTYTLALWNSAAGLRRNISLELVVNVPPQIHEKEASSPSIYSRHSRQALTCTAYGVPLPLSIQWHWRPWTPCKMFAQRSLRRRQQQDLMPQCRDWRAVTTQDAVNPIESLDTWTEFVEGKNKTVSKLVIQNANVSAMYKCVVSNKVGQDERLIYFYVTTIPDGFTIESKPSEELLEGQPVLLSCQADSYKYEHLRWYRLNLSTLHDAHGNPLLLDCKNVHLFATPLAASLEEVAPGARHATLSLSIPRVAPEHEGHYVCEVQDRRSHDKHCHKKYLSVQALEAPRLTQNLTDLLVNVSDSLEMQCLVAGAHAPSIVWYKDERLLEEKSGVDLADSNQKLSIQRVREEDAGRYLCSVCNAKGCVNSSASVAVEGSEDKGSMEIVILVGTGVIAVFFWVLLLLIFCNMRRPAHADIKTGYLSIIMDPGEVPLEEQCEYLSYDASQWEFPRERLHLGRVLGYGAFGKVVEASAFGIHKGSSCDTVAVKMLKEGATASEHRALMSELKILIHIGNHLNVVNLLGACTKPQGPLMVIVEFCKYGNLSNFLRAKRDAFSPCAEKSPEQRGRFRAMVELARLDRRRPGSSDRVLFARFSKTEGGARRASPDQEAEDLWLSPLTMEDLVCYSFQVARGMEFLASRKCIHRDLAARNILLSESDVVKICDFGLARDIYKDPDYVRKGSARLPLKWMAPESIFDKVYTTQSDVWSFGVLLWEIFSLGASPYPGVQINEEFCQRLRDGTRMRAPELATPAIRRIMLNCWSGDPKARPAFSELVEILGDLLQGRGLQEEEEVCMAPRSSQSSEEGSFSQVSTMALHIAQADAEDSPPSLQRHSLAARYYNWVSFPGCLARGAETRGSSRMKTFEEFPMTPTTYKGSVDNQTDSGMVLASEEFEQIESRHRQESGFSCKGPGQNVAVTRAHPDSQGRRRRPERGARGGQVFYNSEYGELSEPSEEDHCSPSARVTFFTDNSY

On to `Cc1cc2c([nH]1)/C=C1\C(=O)Nc3cc(Cl)c(cc31)OCCO[C@@H](C(=O)N[C@@H]1CCNC1)CN(C)C2=O` [Ex. 136, [7R,16a(17)Z]-19-chloro-2,5-dimethyl-4,16-dioxo-N-[(3R)-pyrrolidin-3-yl]-4,5,6,7,9,10,15,16-octahydro-1H-12,14-(ethanediylidene)dipyrrolo[3,2-i:3′,4′-l][1,4,7]dioxazacyclopentadecine-7-carboxamide], for which, in assay [1] (FLT4), the “% Ctrl, FLT4” value is given as 100 % Ctrl. For the same molecule, the “% Ctrl, ABL1(M351T)-phosphorylated” value in assay [2] (ABL1(M351T)-phosphorylated) is 17 % Ctrl. For the same molecule, in assay [3] (KIT(L576P)), the “% Ctrl, KIT(L576P)” value worked out at 4.8 % Ctrl. The “% Ctrl, EGFR(L858R, T790M)” value in assay [4] (EGFR(L858R, T790M)) came out at 93 % Ctrl. In addition, in assay [5] (FLT1), the “% Ctrl, FLT1” value turned out to be 97 % Ctrl. In assay [6] (FLT3(D835Y)), the “% Ctrl, FLT3(D835Y)” value came out at 2.6 % Ctrl. In addition, in assay [7] (RET(V804M)), the “% Ctrl, RET(V804M)” value turned out to be 64 % Ctrl. Besides, in assay [8] (KIT(V559D, T670I)), the “% Ctrl, KIT(V559D, T670I)” value amounted to 3.2 % Ctrl.
Turning to `Cc1cc2c([nH]1)/C=C1\C(=O)Nc3cc(Cl)c(cc31)OCCO[C@@H](C(=O)N(C)C)CN(C)C2=O` [Ex. 137, [7R,16a(17)Z]-19-chloro-N,N,2,5-tetramethyl-4,16-dioxo-4,5,6,7,9,10,15,16-octahydro-1H-12,14-(ethanediylidene)dipyrrolo[3,2-i:3′,4′-l][1,4,7]dioxazacyclopentadecine-7-carboxamide], the “% Ctrl, FLT4” value in assay [1] (FLT4) came out at 95 % Ctrl. The “% Ctrl, ABL1(M351T)-phosphorylated” value in assay [2] (ABL1(M351T)-phosphorylated) came to 51 % Ctrl. For the same molecule, in assay [3] (KIT(L576P)), the “% Ctrl, KIT(L576P)” value was 39 % Ctrl. The “% Ctrl, EGFR(L858R, T790M)” value in assay [4] (EGFR(L858R, T790M)) stood at 93 % Ctrl. Further, the “% Ctrl, FLT1” value in assay [5] (FLT1) is given as 88 % Ctrl. In assay [6] (FLT3(D835Y)), the “% Ctrl, FLT3(D835Y)” value is on record as 14 % Ctrl. In addition, the “% Ctrl, RET(V804M)” value in assay [7] (RET(V804M)) was 57 % Ctrl. Further, the “% Ctrl, KIT(V559D, T670I)” value in assay [8] (KIT(V559D, T670I)) turned out to be 27 % Ctrl.
Regarding `Cc1cc2c([nH]1)/C=C1\C(=O)Nc3cc(Cl)c(cc31)OCCO[C@@H](C(=O)N1CCN(C)CC1)CN(C)C2=O` [Ex. 138, [7R,16a(17)Z]-19-chloro-2,5-dimethyl-7-(4-methylpipearazine-1-carbonyl)-6,7,9,10-tetrahydro-1H-12,14-(ethanediylidene)dipyrrolo[3,2-i:3′,4′-l][1,4,7]dioxazacyclopentadecine-4,16(5H,15H)-dione], in assay [1] (target FLT4), the “% Ctrl, FLT4” value stood at 97 % Ctrl. Besides, the “% Ctrl, ABL1(M351T)-phosphorylated” value in assay [2] (setting [9]) turned out to be 71 % Ctrl. Also, the “% Ctrl, KIT(L576P)” value in assay [3] (target KIT(L576P)) was 69 % Ctrl. Besides, the “% Ctrl, EGFR(L858R, T790M)” value in assay [4] (target EGFR(L858R, T790M)) was 82 % Ctrl. Moreover, the “% Ctrl, FLT1” value in assay [5] (target FLT1) worked out at 96 % Ctrl. Moreover, the “% Ctrl, FLT3(D835Y)” value in assay [6] (target FLT3(D835Y)) is on record as 45 % Ctrl. For the same molecule, the “% Ctrl, RET(V804M)” value in assay [7] (target RET(V804M)) came out at 81 % Ctrl. Besides, the “% Ctrl, KIT(V559D, T670I)” value in assay [8] (target KIT(V559D, T670I)) is reported as 73 % Ctrl.
Regarding `Cc1cc2c([nH]1)/C=C1\C(=O)Nc3ccc(cc31)-c1c(noc1C)CNCCN(C)C2=O` [Ex. 139, [3a(4)Z]-6,9,16-trimethyl-10,11,12,13-tetrahydro-2H-1,17-(ethanediylidene)[1,2]oxazolo[4,3-m]dipyrrolo[3,2-f:3′,4′-i][1,4]diazacyclopentadecine-3,8(5H,9H)-dione], the “% Ctrl, FLT4” value in assay [1] (target FLT4) stood at 23 % Ctrl. In addition, the “% Ctrl, ABL1(M351T)-phosphorylated” value in assay [2] (setting [9]) turned out to be 7.3 % Ctrl. In assay [3] (target KIT(L576P)), the “% Ctrl, KIT(L576P)” value is listed as 84 % Ctrl. The “% Ctrl, EGFR(L858R, T790M)” value in assay [4] (target EGFR(L858R, T790M)) turned out to be 17 % Ctrl. The “% Ctrl, FLT1” value in assay [5] (target FLT1) came out at 65 % Ctrl. Besides, the “% Ctrl, FLT3(D835Y)” value in assay [6] (target FLT3(D835Y)) is reported as 2.5 % Ctrl. Moreover, the “% Ctrl, RET(V804M)” value in assay [7] (target RET(V804M)) was found to be 23 % Ctrl. The “% Ctrl, KIT(V559D, T670I)” value in assay [8] (target KIT(V559D, T670I)) was determined as 69 % Ctrl.

The values are drawn from patent publication US20230257396A1, “MACROCYCLES AND THEIR USE” (BLOSSOMHILL THERAPEUTICS, INC., priority 2020, published 2023).
